Laboratory results published in PubChem BioAssay AID330 (DTP/NCI, 2004).
Where “and” joins values, the source holds several entries; their conditions need not be identical. Identical values can stand only once. Toxic doses and inconclusive results are not listed.

Tested on: P388 leukemia ip, CD2F1 mice, survival T/C
Assay: NCI In Vivo Anticancer Drug Screen. Data for tumor model P388 Leukemia (intraperitoneal) in CD2F1 (CDF1) mice
Settings: endpoint: median survival time, higher = longer survival
Procedure, shortened: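 Mice carrying the transplanted tumor received test compound or vehicle. Survival was recorded in each group, and the value is the treated-group measurement divided by that of the vehicle-treated control group.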

[1] = dose: 25.0 mg/kg/injection, schedule: Q01DX005 (ip), vehicle: Klucel (hydroxypropylcellulose) (HPC)
[2] = dose: 50.0 mg/kg/injection, schedule: Q01DX005 (ip), vehicle: Klucel (hydroxypropylcellulose) (HPC)
[3] = dose: 100.0 mg/kg/injection, schedule: Q01DX005 (ip), vehicle: Klucel (hydroxypropylcellulose) (HPC)
[4] = dose: 200.0 mg/kg/injection, schedule: Q01DX005 (ip), vehicle: Klucel (hydroxypropylcellulose) (HPC)
[5] = dose: 12.5 mg/kg/injection, schedule: Q01DX005 (ip), vehicle: saline
[6] = dose: 25.0 mg/kg/injection, schedule: Q01DX005 (ip), vehicle: saline
[7] = dose: 50.0 mg/kg/injection, schedule: Q01DX005 (ip), vehicle: saline
[8] = dose: 100.0 mg/kg/injection, schedule: Q04DX003 (ip), vehicle: saline with Tween-80
[9] = dose: 400.0 mg/kg/injection, schedule: Q04DX003 (ip), vehicle: saline with Tween-80

For `O=[N+]([O-])c1ccc([Se]CCO)c([N+](=O)[O-])c1`, the T/C (dose: 50.0 mg/kg/injection, schedule: Q01DX009 (ip), vehicle: Klucel (hydroxypropylcellulose) (HPC)) was 101 % of control and the T/C (dose: 100.0 mg/kg/injection, schedule: Q01DX009 (ip), vehicle: Klucel (hydroxypropylcellulose) (HPC)) was 99 % of control.
With `CCOC(=O)/C(=C(/C)N=Cc1ccccc1[N+](=O)[O-])C(NN=O)c1ccccc1[N+](=O)[O-]` (configuration not stated) the T/C [1] was 97 % of control, the T/C [2] was 93 % of control and the T/C [3] was 88 % of control and 90 % of control.
With `O=C(Sc1ccc(F)cc1)N1CCN(C(=O)Sc2ccc(F)cc2)CC1` the T/C [2] was 99 % of control, the T/C [3] was 96 % of control and the T/C [4] was 100 % of control.
`COc1ccc(C(Nc2ncccn2)c2cc(C(C)(C)C)cc(C(C)(C)C)c2O)cc1` (configuration not stated) was tested, and the T/C (dose: 50.0 mg/kg/injection, schedule: Q01DX005 (ip), vehicle: distilled water + alcohol) was 101 % of control, the T/C (dose: 100.0 mg/kg/injection, schedule: Q01DX005 (ip), vehicle: distilled water + alcohol) was 101 % of control and the T/C (dose: 200.0 mg/kg/injection, schedule: Q01DX005 (ip), vehicle: distilled water + alcohol) was 97 % of control.
`COc1cc(C(c2cc3c(cc2O)OCO3)N2CCOCC2)ccc1O` (configuration not stated) was tested, and the T/C (dose: 60.0 mg/kg/injection, schedule: Q01DX005 (ip), vehicle: saline with Tween-80) was 116 % of control and the T/C (dose: 120.0 mg/kg/injection, schedule: Q01DX005 (ip), vehicle: saline with Tween-80) was 106 % of control.
With `COC(=O)C1=NC(=S)N=C(C(=O)OC)C1(C)C(=O)c1ccccc1` the T/C (dose: 60.0 mg/kg/injection, schedule: Q01DX005 (ip), vehicle: saline) was 95 % of control, the T/C (dose: 120.0 mg/kg/injection, schedule: Q01DX005 (ip), vehicle: saline) was 95 % of control and the T/C (dose: 240.0 mg/kg/injection, schedule: Q01DX005 (ip), vehicle: saline) was 118 % of control.
In the case of `Oc1ccc(C/C=C/c2ccccc2)cc1O`, the T/C (dose: 2.5 mg/kg/injection, schedule: Q01DX009 (ip), vehicle: saline + alcohol) is reported as 104 % of control, the T/C (dose: 5.0 mg/kg/injection, schedule: Q01DX009 (ip), vehicle: saline + alcohol) is reported as 104 % of control and the T/C (dose: 10.0 mg/kg/injection, schedule: Q01DX009 (ip), vehicle: saline + alcohol) is reported as 101 % of control.
With `ClCc1nsc(Cl)n1` the T/C (dose: 12.5 mg/kg/injection, schedule: Q01DX005 (ip), vehicle: Klucel (hydroxypropylcellulose) (HPC)) was 93 % of control, the T/C [1] was 98 % of control and the T/C [2] was 104 % of control and 93 % of control.
With `OC1CC2c3ccccc3C1c1cccc[n+]12` (configuration not stated) the T/C [5] was 106 % of control, the T/C [6] was 108 % of control and the T/C [7] was 103 % of control and 106 % of control.
With `CC1=CCN(C)C(C#N)C1` (configuration not stated) the T/C [5] was 97 % of control, the T/C [6] was 105 % of control and the T/C [7] was 105 % of control.
`COc1ccc(/C=C/c2nc(Nc3ccc(OC)cc3)c3ccccc3n2)cc1` was tested, and the T/C (dose: 50.0 mg/kg/injection, schedule: Q01DX009 (ip), vehicle: acetone) was 98 % of control, the T/C (dose: 100.0 mg/kg/injection, schedule: Q01DX009 (ip), vehicle: acetone) was 91 % of control and the T/C (dose: 200.0 mg/kg/injection, schedule: Q01DX009 (ip), vehicle: acetone) was 99 % of control.
With `N#Cc1cn(Cc2ccccc2)c2ccccc2c1=O` the T/C [2] was 100 % of control, the T/C [3] was 103 % of control and the T/C [4] was 103 % of control.
With `CC1CCCC(C)N1NC(=O)C(C)(C)C` (configuration not stated) the T/C [7] was 99 % of control, the T/C (dose: 100.0 mg/kg/injection, schedule: Q01DX005 (ip), vehicle: saline) was 115 % of control and the T/C (dose: 200.0 mg/kg/injection, schedule: Q01DX005 (ip), vehicle: saline) was 101 % of control.
`O=C1CCCCCC1c1ccccc1` (configuration not stated) was tested, and the T/C [8] was 104 % of control, the T/C (dose: 200.0 mg/kg/injection, schedule: Q04DX003 (ip), vehicle: saline with Tween-80) was 104 % of control and the T/C [9] was 109 % of control.
In the case of `COc1cc(C2c3cc4c(cc3C(O)C(CO)C2CO)OCO4)cc(OC)c1OC` (configuration not stated), the T/C (dose: 11.0 mg/kg/injection, schedule: Q01DX009 (ip), vehicle: saline with Tween-80) is reported as 118 % of control, the T/C (dose: 25.0 mg/kg/injection, schedule: Q04DX003 (ip), vehicle: saline with Tween-80) is reported as 115 % of control and the T/C (dose: 37.5 mg/kg/injection, schedule: Q01DX009 (ip), vehicle: saline with Tween-80) is reported as 150 % of control. The T/C [2] was 103 % of control, the T/C [3] was 97 % of control and the T/C (dose: 100.0 mg/kg/injection, schedule: Q01DX009 (ip), vehicle: saline sonified) was 165 % of control. For the same compound, the T/C [8] was 155 % of control, the T/C [4] was 94 % of control and the T/C (dose: 200.0 mg/kg/injection, schedule: Q01DX009 (ip), vehicle: saline sonified) was 195 % of control. The T/C (dose: 264.0 mg/kg/injection, schedule: Q04DX003 (ip), vehicle: saline with Tween-80) was 154 % of control, the T/C (dose: 400.0 mg/kg/injection, schedule: Q01DX009 (ip), vehicle: saline sonified) was 95 % of control and the T/C [9] was 163 % of control.
In the case of `OCC1OC(n2cnc3c2NC=NC[C@H]3O)CC1O` (some centres not stated), the T/C (dose: 0.05 mg/kg/injection, schedule: Q03HX024 (ip), vehicle: clinical formulation) is reported as 100 % of control, the T/C (dose: 0.05 mg/kg/injection, schedule: Q03HX024 (ip), vehicle: water) is reported as 99 % of control and the T/C (dose: 0.1 mg/kg/injection, schedule: Q03HX024 (ip), vehicle: clinical formulation) is reported as 100 % of control. The T/C (dose: 0.1 mg/kg/injection, schedule: Q03HX024 (ip), vehicle: water) was 100 % of control, the T/C (dose: 0.12 mg/kg/injection, schedule: Q01DX009 (ip), vehicle: water) was 111 % of control and the T/C (dose: 0.13 mg/kg/injection, schedule: Q01DX009 (ip), vehicle: saline) was 112 % of control. For the same compound, the T/C (dose: 0.2 mg/kg/injection, schedule: Q03HX024 (ip), vehicle: clinical formulation) was 100 % of control, the T/C (dose: 0.2 mg/kg/injection, schedule: Q03HX024 (ip), vehicle: water) was 100 % of control and the T/C (dose: 0.25 mg/kg/injection, schedule: Q01DX005 (ip), vehicle: water) was 101 % of control and 102 % of control. The T/C (dose: 0.25 mg/kg/injection, schedule: Q01DX009 (ip), vehicle: saline) was 100 % of control and 119 % of control, the T/C (dose: 0.25 mg/kg/injection, schedule: Q01DX009 (ip), vehicle: water) was 103 % of control and 111 % of control and the T/C (dose: 0.25 mg/kg/injection, schedule: Q04DX002 (ip), vehicle: saline) was 99 % of control and 112 % of control. For the same compound, the T/C (dose: 0.25 mg/kg/injection, schedule: Q04DX003 (ip), vehicle: saline) was 101 % of control, the T/C (dose: 0.38 mg/kg/injection, schedule: Q01DX009 (ip), vehicle: saline) was 107 % of control and the T/C (dose: 0.5 mg/kg/injection, schedule: Q01DX005 (ip), vehicle: water) was 99 % of control and 101 % of control. The T/C (dose: 0.5 mg/kg/injection, schedule: Q01DX009 (ip), vehicle: saline) was 109 % of control and 110 % of control, the T/C (dose: 0.5 mg/kg/injection, schedule: Q01DX009 (ip), vehicle: water) was 99 % of control and 118 % of control and the T/C (dose: 0.5 mg/kg/injection, schedule: Q04DX002 (ip), vehicle: saline) was 106 % of control and 109 % of control. The T/C (dose: 0.5 mg/kg/injection, schedule: Q04DX003 (ip), vehicle: saline) was 101 % of control, the T/C (dose: 0.66 mg/kg/injection, schedule: Q01DX009 (ip), vehicle: saline) was 92 % of control and the T/C (dose: 0.75 mg/kg/injection, schedule: Q01DX009 (ip), vehicle: saline) was 104 % of control. The T/C (dose: 1.0 mg/kg/injection, schedule: Q01DX005 (ip), vehicle: water) was 102 % of control, the T/C (dose: 1.0 mg/kg/injection, schedule: Q01DX009 (ip), vehicle: saline) was 107 % of control and 94 % of control and the T/C (dose: 1.0 mg/kg/injection, schedule: Q01DX009 (ip), vehicle: water) was 101 % of control. For the same compound, the T/C (dose: 1.5 mg/kg/injection, schedule: Q01DX009 (ip), vehicle: saline) was 103 % of control, the T/C (dose: 2.0 mg/kg/injection, schedule: Q01DX005 (ip), vehicle: water) was 102 % of control and the T/C (dose: 2.0 mg/kg/injection, schedule: Q01DX009 (ip), vehicle: saline) was 102 % of control. For the same compound, the T/C (dose: 2.0 mg/kg/injection, schedule: Q01DX009 (ip), vehicle: water) was 86 % of control, the T/C (dose: 3.0 mg/kg/injection, schedule: Q01DX009 (ip), vehicle: saline) was 107 % of control and the T/C (dose: 4.0 mg/kg/injection, schedule: Q01DX005 (ip), vehicle: water) was 104 % of control. The T/C (dose: 4.0 mg/kg/injection, schedule: Q01DX009 (ip), vehicle: water) was 86 % of control.
For `Fc1ccc(-c2nc3cc(-c4ccccc4)[nH]n3c2N=Nc2ccccc2)cc1`, the T/C (dose: 50.0 mg/kg/injection, schedule: Q01DX005 (ip), vehicle: saline with Tween-80) was 105 % of control, the T/C (dose: 100.0 mg/kg/injection, schedule: Q01DX005 (ip), vehicle: saline with Tween-80) was 103 % of control and the T/C (dose: 200.0 mg/kg/injection, schedule: Q01DX005 (ip), vehicle: saline with Tween-80) was 108 % of control.
In the case of `CC(C)(C)c1cc(C(=O)O)c(SSc2ccccc2)c(C(=O)O)c1`, the T/C (dose: 100.0 mg/kg/injection, schedule: Q04DX002 (ip), vehicle: Klucel (hydroxypropylcellulose) (HPC)) is reported as 105 % of control.
